Results as given in US8921397B2, “Benzofurane-piperidine compounds” (Hoffmann-La Roche Inc., priority 2011, dated 2014).

Tests used:
human 5-HT2A receptor = human 5-HT2A receptor (Homo sapiens (Human), UniProt P28223); assay: Radioligand binding ([3H]-ketanserin) to human 5-HT2A receptor, HEK293 EBNA membranes; details: HEK293 EBNA cells expressing human 5-HT2A receptor
Procedure: The ability of the compounds to bind to the 5-HT2A, D3 and D2 receptors was determined using radioligand binding to cloned receptors selectively expressed in HEK-293 EBNA cells.
(§1) HEK293 EBNA cells were transiently transfected with expression plasmids encoding for the human D2 or D3 or for the human 5-HT2A receptor, respectively. The cells were harvested 48 h post-transfection, washed three times with cold PBS and stored at −80° C. prior to use. The pellet was suspended in cold 50 mM Tris-HCl buffer containing 10 mM EDTA (pH 7.4) and was homogenized with a Polytron (Kinematica AG, Basel, Switzerland) for 20-30 sec at 12.000 rpm. After centrifugation at 48.000×g for 30 min at 4° C., the pellet was resuspended in cold 10 mM Tris-HCl buffer containing 0.1 mM EDTA (pH 7.4), homogenized, and centrifuged as above. This pellet was further resuspended in a smaller volume of ice cold 10 mM Tris-HCl buffer containing 0.1 mM EDTA (pH 7.4) and homogenized with a Polytron for 20-30 sec at 12.000 rpm. The protein content of this homogenate was determined with the Bio-Rad (Bradford) Protein Assay (Biorad Laboratories GmbH, München, Germany) according to the instructions of the manufacturer using gamma globulin as the standard. This homogenate was stored at −80° C. in aliquots and thawed immediately prior to use.
(§2) Aliquots of membrane preparations were thawed at RT, resuspended in assay buffer (D2, D3: 50 mM Tris-HCl, 120 mM NaCl, 5 mM MgCl2, 1 mM EDTA, 5 mM KCl, 1.5 mM CaCl2, pH=7.4; 5-HT2A: 50 mM Tris-HCl, 10 mM MgCl2, 1 mM EGTA, pH=7.4), homogenized with a Polytron for 20-30 sec at 12.000 rpm and adjusted to a final concentration of approximately 7.5 μg protein/well (D2, D3) and 15 μg protein/well (5-HT2A), respectively.
(§3) The binding affinity (Ki) of the compounds was determined using radioligand binding.
(§4) Membranes were incubated in a total volume of 200 μl with a fixed concentration of radioligand (final concentration approximately 0.7 nM [^3H]-spiperone for D2, 0.5 nM [^3 H]-spiperone for D3, and 1.1 nM [^3H]-ketanserin for 5-HT2A) and ten concentrations of test compound in ranging between 10 μM-0.1 nM for 1 h at RT. At the end of the incubation, the reaction mixtures were filtered on to unifilter 96-well white microplates with bonded GF/C filters (Packard BioScience, Zürich, Switzerland; preincubated for 1 h in 0.1% polyethylenimine (PEI) in assay buffer) with a Filtermate 196 harvester (Packard BioScience) and washed 3 times with cold assay buffer. The nonspecific binding was determined with equally composed reaction mixtures in the presence of 10 μM unlabelled spiperone. Per well 45 μl of Microscint 40 (Perkin Elmer, Schwerzenbach, Switzerland) was added, plates for sealed, shaken for 20 min and counted for 3 min on a Topcount Microplate Scintillation Counter (Canberra Packard SA, Zürich, Switzerland) with quenching correction.
(§5) The CPM value for each duplicate of a concentration of competing compound was averaged (y1), then the % specific binding was calculated according to the equation (((y1−non-specific)/(total binding−non-specific))×100). Graphs were plotted with the % specific binding using XLfit, a curve-fitting program that iteratively plots the data using Levenberg-Marquardt algorithm. The single site competition analysis equation used was y=A+((B−A)/(1+((x/C)D))), where y is the % specific binding, A is the minimum y, B is the maximum y, C is the IC50, x is the log 10 of the concentration of the competing compound and D is the slope of the curve (the Hill Coefficient). From these curves the IC50 (inhibition concentration at which 50% specific binding of the radioligand was displaced) and Hill coefficient were determined. The affinity constant (Ki) was calculated using the Cheng-Prusoff equation Ki=(IC50/1+([L]/Kd), where [L] is the concentration of radioligand and Kd is the dissociation constant of the radioligand at the receptor as determined by the saturation isotherm.

human D3 receptor = human D3 receptor (Homo sapiens (Human), UniProt P35462); assay: Radioligand binding ([3H]-spiperone) to human D3 receptor, HEK293 EBNA membranes; details: HEK293 EBNA cells expressing human D3 receptor
Sequence of human D3 receptor (P35462 whole entry): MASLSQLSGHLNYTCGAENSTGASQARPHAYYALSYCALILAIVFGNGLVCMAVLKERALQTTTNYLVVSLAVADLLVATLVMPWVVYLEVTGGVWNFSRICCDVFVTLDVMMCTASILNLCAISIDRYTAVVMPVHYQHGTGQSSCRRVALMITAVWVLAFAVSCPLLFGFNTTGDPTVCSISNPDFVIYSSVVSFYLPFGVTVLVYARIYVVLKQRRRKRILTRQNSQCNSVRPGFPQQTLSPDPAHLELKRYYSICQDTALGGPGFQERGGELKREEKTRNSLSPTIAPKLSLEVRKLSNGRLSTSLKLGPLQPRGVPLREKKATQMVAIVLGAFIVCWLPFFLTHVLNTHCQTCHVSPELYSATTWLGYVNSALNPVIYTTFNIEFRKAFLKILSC
Procedure: as §1, §2, §3, §4, §5

human D2 receptor = human D2 receptor (Homo sapiens (Human), UniProt P14416); assay: Radioligand binding ([3H]-spiperone) to human D2 receptor, HEK293 EBNA membranes; details: HEK293 EBNA cells expressing human D2 receptor
Sequence of human D2 receptor (P14416 whole entry): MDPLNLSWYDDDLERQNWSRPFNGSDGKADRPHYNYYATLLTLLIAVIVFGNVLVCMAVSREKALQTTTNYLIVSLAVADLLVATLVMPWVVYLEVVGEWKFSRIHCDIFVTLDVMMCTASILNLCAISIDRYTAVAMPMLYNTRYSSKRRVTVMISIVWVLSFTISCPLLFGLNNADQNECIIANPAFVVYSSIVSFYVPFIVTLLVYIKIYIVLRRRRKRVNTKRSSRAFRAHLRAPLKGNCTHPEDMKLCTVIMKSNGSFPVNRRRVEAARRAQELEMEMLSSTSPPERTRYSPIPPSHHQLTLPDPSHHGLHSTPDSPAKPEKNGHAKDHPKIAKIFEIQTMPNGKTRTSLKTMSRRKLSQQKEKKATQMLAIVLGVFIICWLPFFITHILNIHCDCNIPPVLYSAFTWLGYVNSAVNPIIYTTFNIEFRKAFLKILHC
Procedure: as §1, §2, §3, §4, §5

Sequence of human 5-HT2A receptor (P28223 whole entry): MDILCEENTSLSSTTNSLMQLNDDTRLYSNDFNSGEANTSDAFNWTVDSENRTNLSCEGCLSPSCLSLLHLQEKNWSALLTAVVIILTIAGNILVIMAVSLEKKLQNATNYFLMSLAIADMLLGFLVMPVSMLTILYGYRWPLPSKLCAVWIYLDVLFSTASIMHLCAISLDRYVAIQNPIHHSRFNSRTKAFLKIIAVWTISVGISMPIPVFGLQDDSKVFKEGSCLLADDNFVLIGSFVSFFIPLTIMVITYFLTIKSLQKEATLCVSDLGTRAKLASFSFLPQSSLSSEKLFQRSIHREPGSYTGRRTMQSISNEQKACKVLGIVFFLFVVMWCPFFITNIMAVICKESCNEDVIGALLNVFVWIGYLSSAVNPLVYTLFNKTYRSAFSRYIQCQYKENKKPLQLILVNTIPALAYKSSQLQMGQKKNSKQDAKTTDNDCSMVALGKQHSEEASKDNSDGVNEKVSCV

| SMILES | Ki (human 5-HT2A receptor) [nM] | Ki (human D3 receptor) [nM] | melting point [°C] | Ki (human D2 receptor) [nM] |
| --- | --- | --- | --- | --- |
| O=C(N[C@H]1CC[C@H](CCN2CCC(c3coc4ccccc34)CC2)CC1)C1(O)CC1 [Example 22, 1-Hydroxy-cyclopropanecarboxylic acid trans-{4-[2-(4-benzofuran-3-yl-piperidin-1-yl)-ethyl]-cyclohexyl}-amide] | 3.05 | 1.48 | 200 | 47.5 |
| O=C(N[C@H]1CC[C@H](CCN2CCC(c3coc4ccccc34)CC2)CC1)C(O)C(F)(F)F (mixture of isomers) [Example 32, trans-N-{4-[2-(4-Benzofuran-3-yl-piperidin-1-yl)-ethyl]-cyclohexyl}-(RS)-3,3,3-trifluoro-2-hydroxy-propionamide] | 6.08 | 4.02 | 206 | 46.4 |
| Cc1ccc(C(=O)N[C@H]2CC[C@H](CCN3CCC(c4coc5ccccc45)CC3)CC2)cn1 [Example 69, trans-N-{4-[2-(4-Benzofuran-3-yl-piperidin-1-yl)-ethyl]-cyclohexyl}-6-methyl-nicotinamide] | 5.11 | 2.53 | 203 | 28.1 |
| O=C(N[C@H]1CC[C@H](CCN2CCC(c3coc4ccccc34)CC2)CC1)c1ccc(-c2cccnc2)cc1 [Example 64, trans-N-{4-[2-(4-Benzofuran-3-yl-piperidin-1-yl)-ethyl]-cyclohexyl}-4-pyridin-3-yl-benzamide] | 12.8 | 4.55 | 224 | 16.7 |
| Cc1cc(C(=O)N[C@H]2CC[C@H](CCN3CCC(c4coc5ccccc45)CC3)CC2)on1 [Example 41, 3-Methyl-isoxazole-5-carboxylic acid trans-{4-[2-(4-benzofuran-3-yl-piperidin-1-yl)-ethyl]-cyclohexyl}-amide] | 9.21 | 4.23 | 178 | 36.4 |
| O=C(N[C@H]1CC[C@H](CCN2CCC(c3coc4ccccc34)CC2)CC1)C(F)(F)F [Example 39, trans-N-{4-[2-(4-Benzofuran-3-yl-piperidin-1-yl)-ethyl]-cyclohexyl}-2,2,2-trifluoro-acetamide] | 8.62 | 4.08 | 152 | 37.5 |
| O=C(N[C@H]1CC[C@H](CCN2CCC(c3coc4ccccc34)CC2)CC1)c1ccc(-n2cccc2)cc1 [Example 68, trans-N-{4-[2-(4-Benzofuran-3-yl-piperidin-1-yl)-ethyl]-cyclohexyl}-4-pyrrol-1-yl-benzamide] | 10.2 | 4.58 | 212 | 34.3 |
| N#CCC(=O)N[C@H]1CC[C@H](CCN2CCC(c3coc4ccccc34)CC2)CC1 [Example 23, trans-N-{4-[2-(4-Benzofuran-3-yl-piperidin-1-yl)-ethyl]-cyclohexyl}-2-cyano-acetamide] | 5.96 | 0.84 | 186 | 41.5 |
| CC(C)C(=O)N[C@H]1CC[C@H](CCN2CCC(c3coc4ccccc34)CC2)CC1 [Example 14, trans-N-{4-[2-(4-Benzofuran-3-yl-piperidin-1-yl)-ethyl]-cyclohexyl}-isobutyramide] | 5.75 | 1.78 | 173 | 39.5 |
| O=C(CC1CC1)N[C@H]1CC[C@H](CCN2CCC(c3coc4ccccc34)CC2)CC1 [Example 25, trans-N-{4-[2-(4-Benzofuran-3-yl-piperidin-1-yl)-ethyl]-cyclohexyl}-2-cyclopropyl-acetamide] | 5.16 | 2.24 | 165 | 33.7 |
| O=C(N[C@H]1CC[C@H](CCN2CCC(c3coc4ccccc34)CC2)CC1)c1ccc(C(F)(F)F)cc1 [Example 50, trans-N-{4-[2-(4-Benzofuran-3-yl-piperidin-1-yl)-ethyl]-cyclohexyl}-4-trifluoromethyl-benzamide] | 4.75 | 2.21 | 218 | 152 |
| O=C(N[C@H]1CC[C@H](CCN2CCC(c3coc4ccccc34)CC2)CC1)c1ccc(N2CCOCC2)nc1 [Example 65, trans-N-{4-[2-(4-Benzofuran-3-yl-piperidin-1-yl)-ethyl]-cyclohexyl}-6-morpholin-4-yl-nicotinamide] | 7.56 | 3.49 | 215 | 51.8 |
| O=C(N[C@H]1CC[C@H](CCN2CCC(c3coc4ccccc34)CC2)CC1)c1ccc(N2CCS(=O)(=O)CC2)cc1 [Example 66, trans-N-{4-[2-(4-Benzofuran-3-yl-piperidin-1-yl)-ethyl]-cyclohexyl}-4-(1,1-dioxo-1λ6-thiomorpholin-4-yl)-benzamide] | 10.1 | 3.4 | 269 | 19.2 |
| CC(C)Cc1ccc(C(=O)N[C@H]2CC[C@H](CCN3CCC(c4coc5ccccc45)CC3)CC2)cc1 [Example 80, trans-N-{4-[2-(4-Benzofuran-3-yl-piperidin-1-yl)-ethyl]-cyclohexyl}-4-isobutyl-benzamide] | 2.69 | 4.16 | 190 | 292 |
| O=C(CC1COC1)N[C@H]1CC[C@H](CCN2CCC(c3coc4ccccc34)CC2)CC1 [Example 76, trans-N-{4-[2-(4-Benzofuran-3-yl-piperidin-1-yl)-ethyl]-cyclohexyl}-2-oxetan-3-yl-acetamide] | 5.25 | 1.64 | 197 | 34.2 |
| O=C(CC1CCCO1)N[C@H]1CC[C@H](CCN2CCC(c3coc4ccccc34)CC2)CC1 (stereo partly drawn) [Example 29, trans-N-{4-[2-(4-Benzofuran-3-yl-piperidin-1-yl)-ethyl]-cyclohexyl}-2-(tetrahydro-furan-2-yl)-acetamide] | 5.43 | 2.75 | 149 | 52.9 |
| CC(C)c1ccc(C(=O)N[C@H]2CC[C@H](CCN3CCC(c4coc5ccccc45)CC3)CC2)cc1 [Example 83, trans-N-{4-[2-(4-Benzofuran-3-yl-piperidin-1-yl)-ethyl]-cyclohexyl}-4-isopropyl-benzamide] | 2.6 | 4.8 | 188 | 402 |
| O=C(N[C@H]1CC[C@H](CCN2CCC(c3coc4ccccc34)CC2)CC1)c1ccc(C2CC2)cc1 [Example 84, trans-N-{4-[2-(4-Benzofuran-3-yl-piperidin-1-yl)-ethyl]-cyclohexyl}-4-cyclopropyl-benzamide] | 2.15 | 14.1 | 199 | 355 |
| CS(=O)(=O)c1ccc(C(=O)N[C@H]2CC[C@H](CCN3CCC(c4coc5ccccc45)CC3)CC2)s1 [Example 75, 5-Methanesulfonyl-thiophene-2-carboxylic acid trans-{4-[2-(4-benzofuran-3-yl-piperidin-1-yl)-ethyl]-cyclohexyl}-amide] | 7.85 | 3.89 | 214 | 60.8 |
